Measured values published in US12466821B2 (Novartis AG, priority 2018, dated 2025).
pEC50, pIC50: −log10 of the molar value.

How the values were obtained:
[1] = target: human CMV DNA polymerase UL54 (Human cytomegalovirus (strain AD169) (HHV-5) (Human herpesvirus 5), UniProt P08546); experiment: CMV polymerase biochemical assay (molecular beacon-based)
Method: (§1) Both human CMV DNA polymerase UL54 and human HSV DNA polymerase UL30 were produced as N-terminal MBP fusion of the full length, wild type recombinant proteins in order to enhance soluble expression in insect cell expression system. The proteins were expressed in sf9 insect cells via baculovirus transduction and cells were harvested after 48 hours. The soluble proteins were purified using the standard Ni-IMAC purification strategy via the N-terminal hexa-Histidine tag, followed by heparin affinity chromatography. Both of the final MBP fusion proteins were more than 90% pure and the yield of UL54 was up to 1.8 mg per liter culture while UL30 was up to 15 mg per liter culture. All purification steps were performed on ice, with buffers chilled on ice and FPLC fraction collectors set at 6° C. […] UL30 protein was stored in buffer containing 20 mM HEPES, pH7.0, 420 mM NaCl, 20% glycerol, 6 mM Imidazole, and 0.8 mM DTT at−80° C.
(§2) DNA polymerase activity was measured using a molecular beacon-based assay, as described in Ma et. al.
(§3) 100 pM CMV polymerase or 625 pM HSV polymerase was added to a buffer containing 20 mM Tris, pH=7.5, 100 mM NaCl, 10 mM MgCl2, 0.01% Tween-20, 0.5 mM EDTA, 10% Sucrose and 1 mM DTT. The inhibitor was pre-incubated with the polymerase for 30 minutes at room temperature. Reactions were initiated by the addition of a mixture containing 1.25 uM dATP, 1.25 uM dCTP, 1.25 uM dTTP, 1.25 uM dGTP, 200 nM Primer B (5′-GAC GGG AAG-3′5′-GAC GGG AAG-3′) and 100 nM molecular beacon (5′-5,6-FAM-CCTCTCCGTGTCTTGTACTTCCCGTCAGAGAGG-BHQ1-3′). For human CMV polymerase the reactions were incubated for 60 minutes at room temperature. For HSV polymerase the reactions were incubated for 20 minutes at room temperature. The reactions were then read on a Perkin-Elmer EnVision 2101 reader (fluorescence) using an excitation of 480 nm and emission of 535 nm. 1050s were determined using an internal Novartis software (Helios).
as §3, with “nm.” for “nm. 1050s were determined using an internal Novartis software (Helios).”

[2] = test system: Luciferase-encoding HCMV, AD169 strain; experiment: CMV Luciferase assay (cellular herpesvirus replication); type: cell-based; conditions: Human betaherpesvirus 5, AD169, read-out: CMV-Luc Cellular EC50
Method: For all viral assays, 10 mM DMSO stock compound solutions were serially diluted in DMSO at 3.16 fold dilutions in 96-well clear round bottom plates. Compounds were then diluted in assay media at 1:20 and subsequently 10 μL of these dilutions were added to cells for final compound concentrations ranging either from 0.0159 μM to 50 μM in 0.5% DMSO/assay media, or from 0.00318 to 10 μM in 0.5% DMSO/assay media.
The assay uses a Luciferase-encoding HCMV. Luciferase is expressed under the control of a late viral gene (pp28) promoter in the AD169 strain, so that expression of the reporter is dependent on viral DNA replication. Compounds that affect any stage from viral entry to DNA replication result in a change in luciferase levels.
Viral replication in the presence or absence of compounds was measured by luciferase activity according to the following procedure: Neo-natal normal human dermal fibroblast cells (NN-NHDF, from ATCC cat #201-010) were seeded at 9,000 cells/well in 96-well white solid bottom plate at 80 uL/well in assay media: 2% FBS, 4 mM GlutaMax® (Invitrogen cat #35050) in DMEM/high glucose/no glutamine/no phenol red media (Invitrogen cat #31053). After 2 hrs at 37° C., 10 uL of compound diluted in assay media or 5% DMSO (final 0.5% DMSO/well) was added and the plates returned to 37° C. One hour later, 10 uL of virus diluted in assay media was added at a final Multiplicity of infection (MOI) of 1. Plates were incubated at 37° C. for 72 hrs. At 72 hours post-infection (hpi), plates were equilibrated to room temperature. After 25 min, 100 uL Renilla-Glo® Luciferase Assay Reagent (Promega cat # E2750) was added to each well and incubated for 10 min. Plates were covered to protect from light. Luminescence was measured on the PHERAstar FS®.
The following controls were included in the data analysis: No virus, no compound (0.5% DMSO)=IC (maximal inhibitory control); Virus, no compound (0.5% DMSO)=NC (neutral control). Data were analyzed using an internal Novartis software (Helios). The means of the controls (NC, IC) were used to normalize the results to a % scale using the formula: % Control=100−(100*(Sample value−NC)/(IC−NC)).
For each compound, the software derived an EC50 using a 4-parameter logistical model.

[3] = target: human HSV DNA polymerase UL30 (Human herpesvirus 1 (strain 17) (HHV-1) (Human herpes simplex virus 1), UniProt P04293); experiment: HSV polymerase biochemical assay (molecular beacon-based)
Method: as §1, §2, §3
as §3, with “nm.” for “nm. 1050s were determined using an internal Novartis software (Helios).”

SMILES | pIC50 [1] | pEC50 [2] | pIC50 [3]
CC(=O)NS(=O)(=O)C1(CN2CCn3c(ccc(C(=O)NCc4ccc(C#N)cc4)c3=O)C2=O)CC1 [Example 73-3] | 8.80 | 5.03 | 7.34
N#Cc1ccc(CNC(=O)c2ccc3n(c2=O)CCN(CC2(S(=O)(=O)CC4(C#N)CC4)CC2)C3=O)cc1F [Example 112] | 8.66 | 6.73 | 7.36
CS(=O)(=O)CCCN1CCn2c(c(C(F)F)cc(C(=O)NCc3ccc(Cl)cc3)c2=O)C1=O [Example 145] | 5.85 | 4.52 | 5.17
N#Cc1ccc(CNC(=O)c2ccc3n(c2=O)CCN(CC2(S(=O)(=O)C4(F)CC4)CC2)C3=O)cc1 [Example 77-1, N-(4-cyanobenzyl)-2-((1-((1-fluorocyclopropyl)sulfonyl)cyclopropyl)methyl)-1,6-dioxo-2,3,4,6-tetrahydro-1H-pyrido[1,2-a]pyrazine-7-carboxamide] | 8.49 | 6.90 | 7.02
CC1(S(=O)(=O)C2(CN3CCn4c(ccc(C(=O)NCc5ccc(C#N)c(F)c5)c4=O)C3=O)CC2)CC1 [Example 94-2] | 9.52 | 8.10 | 7.60
CC(C)(CO)S(=O)(=O)C1(CN2CCn3c(ccc(C(=O)NCc4ccc(Cl)cc4)c3=O)C2=O)CC1 [Example 180, N-(4-chlorobenzyl)-2-((1-((1-hydroxy-2-methylpropan-2-yl)sulfonyl)cyclopropyl)methyl)-1,6-dioxo-1,3,4,6-tetrahydro-2H-pyrido[1,2-a]pyrazine-7-carboxamide] | 9.70 | 8.21 | 7.64
CS(=O)(=O)C1(CN2CCn3c(ccc(C(=O)NCc4ccc(C#N)cc4)c3=O)C2=O)CC1 [Example 46] | 8.22 | 6.64 | 6.90
N#Cc1ccc(CNC(=O)c2ccc3n(c2=O)CCN(CC2(S(=O)(=O)[C@H]4CC4(F)F)CC2)C3=O)cc1Cl (single isomer, unassigned) [Example 102-1] | 8.70 | 6.64 | 6.70
CS(=O)(=O)N1CCC[C@@H]1CN1CCn2c(ccc(C(=O)NCc3ccc(Cl)cc3)c2=O)C1=O [Example 63] | 6.38 | 4.91 | 4.70
CN(CCN1CCn2c(c(C#CCO)cc(C(=O)NCc3ccc(Cl)cc3)c2=O)C1=O)S(C)(=O)=O [Example 155, N-(4-chlorobenzyl)-9-(3-hydroxyprop-1-yn-1-yl)-2-(2-(N-methylmethylsulfonamido)ethyl)-1,6-dioxo-1,3,4,6-tetrahydro-2H-pyrido[1,2-a]pyrazine-7-carboxamide] | 6.70 | 4.43 | 5.71
N#Cc1ccc(CNC(=O)c2ccc3n(c2=O)CCN(CC2CCCS2(=O)=O)C3=O)cc1F (stereo not drawn) [Example 82, N-(4-cyano-3-fluorobenzyl)-2-((1,1-dioxidotetrahydrothiophen-2-yl)methyl)-1,6-dioxo-2,3,4,6-tetrahydro-1H-pyrido[1,2-a]pyrazine-7-carboxamide] | 5.96 | 5.00 | 4.68
CC(C)(c1ncno1)S(=O)(=O)C1(CN2CCn3c(ccc(C(=O)NCc4ccc(Cl)cc4)c3=O)C2=O)CC1 [Example 178, 2-((1-((2-(1,2,4-oxadiazol-5-yl)propan-2-yl)sulfonyl)cyclopropyl)methyl)-N-(4-chlorobenzyl)-1,6-dioxo-1,3,4,6-tetrahydro-2H-pyrido[1,2-a]pyrazine-7-carboxamide] | 9.52 | 7.36 | 8.00
O=C(NCc1ccc(Cl)cc1)c1cc(Br)c2n(c1=O)CCN(CCN1CCCS1(=O)=O)C2=O [Example 124, 9-bromo-N-(4-chlorobenzyl)-2-(2-(1,1-dioxidoisothiazolidin-2-yl)ethyl)-1,6-dioxo-1,3,4,6-tetrahydro-2H-pyrido[1,2-a]pyrazine-7-carboxamide] | 7.08 | 6.06 | 6.51
Cc1cc(C(=O)NCc2ccc(Cl)cc2)c(=O)n2c1C(=O)N(CC1(N(C)S(C)(=O)=O)CC1)CC2 [Example 149] | 6.95 | 5.10 | 5.66
CS(=O)(=O)C1(CN2CCn3c(ccc(C(=O)NCc4ccc(Br)cc4)c3=O)C2=O)CC1 [Example 37] | 8.89 | 7.21 | 6.95
CCS(=O)(=O)NC1(CN2CCn3c(ccc(C(=O)NCc4ccc(Cl)cc4)c3=O)C2=O)CC1 [Example 199] | 7.27 | 5.76 | 5.95
CC1CN(CCN(C)S(C)(=O)=O)C(=O)c2ccc(C(=O)NCc3ccc(Cl)cc3)c(=O)n21 (stereo not drawn) [Example 91, N-(4-chlorobenzyl)-4-methyl-2-(2-(N-methylmethylsulfonamido)ethyl)-1,6-dioxo-2,3,4,6-tetrahydro-1H-pyrido[1,2-a]pyrazine-7-carboxamide] | 6.73 | 5.61 | 5.65
CN(CCN1CCn2c(ccc(C(=O)NCc3ccc(Cl)cc3)c2=O)C1=O)S(C)(=O)=O [Example 58, N-(4-chlorobenzyl)-2-(2-(N-methylmethylsulfonamido)ethyl)-1,6-dioxo-2,3,4,6-tetrahydro-1H-pyrido[1,2-a]pyrazine-7-carboxamide] | 7.12 | 6.05 | 6.07
CC(C)(C(=O)O)S(=O)(=O)C1(CN2CCn3c(ccc(C(=O)NCc4ccc(Cl)cc4)c3=O)C2=O)CC1 [Example 175, 2-((1-((7-((4-chlorobenzyl)carbamoyl)-1,6-dioxo-1,3,4,6-tetrahydro-2H-pyrido[1,2-a]pyrazin-2-yl)methyl)cyclopropyl)sulfonyl)-2-methylpropanoic acid] | 9.10 | 5.22 | 7.61
C[C@@H](NC(=O)c1ccc2n(c1=O)CCN(CC1(S(C)(=O)=O)CC1)C2=O)c1ccc(Cl)cc1 [Example 45] | 6.34 | 5.00 | 3.89
